Experiments:
[1] = test system: latently HIV-1 infected primary T cells; experiment: Reactivation of latent HIV-1 infection in primary T cells (GFP); type: cell-based; settings: 24 hours
Description: Latently HIV-1 infected primary T cells were treated for 24 hours with aclacinomycin (ACM) or dactinomycin (ActD), or with the anti-CD3 monoclonal antibody (mAb) OKT3. Reactivation levels were determined as a percentage of GFP-positive cells 24 hours after stimulation. Viability of the cells correlates with the size of the symbol.
To determine if aclacinomycin or dactinomycin were capable of reactivating a latent HIV-1 infection in primary T cells, latently HIV-1 infected primary T cells were treated with aclacinomycin or dactinomycin or with the anti-CD3 monoclonal antibody OKT3 for 24 hours. Reactivation of the latent HIV-1 infection was observed by increasing levels of GFP fluorescence.

[2] = test system: latently HIV-1 infected CA5 T cells; type: cell-based; settings: CA5 cells pretreated with increasing concentrations
Description: Infection levels in the cell cultures were monitored by flow cytometric analysis of EGFP expression. Flow cytometric analysis was performed on a GUAVA EasyCyte (Millipore; Billerica, Mass.), or a LSRII (Becton & Dickinson; Franklin Lakes, N.J.).
Bacterial growth. Bacteria from various sources were isolated on TSA II agar plates containing 5% sheep blood. Bacterial isolates were then grown in RPMI 1640 medium supplemented with 10% FBS. After two days of incubation at 37° C. bacteria were pelleted and resuspended in RPMI medium to an optical density (OD600) of 8, aliquoted and frozen at −80° C. Unless otherwise indicated, Massilia timonae was grown in RPMI 1640 medium supplemented with 10% FBS. Typically, medium was inoculated with Massilia timonae from frozen stocks to an OD600 of 0.01. After 48 hours at 37° C., the culture was centrifuged at 3200 g to separate bacteria from the culture medium. Bacteria were resuspended in fresh medium to an OD600 of 8 and frozen to be used as references and stock cultures. The supernatant was then centrifuged at 10,000 g for 20 minutes and sterilized by passage through a 0.2 μm PVDF filter with low protein binding ability. HRF activity was determined by its ability to reactivate latent HIV-1 infection in CA5 cells. Only supernatants of which 6 μl reactivated infection in at least 60% of CA5 cells were used to study HRF properties.
Flow cytometry. Infection levels in the cell cultures were monitored by flow cytometric (FCM) analysis of GFP expression. FCM analysis was performed on a GUAVA EasyCyte (GUAVA Technologies, Inc.; Millipore; Billerica, Mass.) and a BD FACSCalibur or a LSRII (Becton & Dickinson; Franklin Lakes, N.J.). Cell sorting experiments were performed using a FACSAria™ Flow Cytometer (Becton&Dickinson). Data analysis was performed using either CellQuest (Becton&Dickinson) or GUAVA Express (GUAVA Technologies, Inc.).
To identify the optimal concentration of dactinomycin, CA5 T cells were pretreated with increasing concentrations of dactinomycin (0.0001 and 1 μg/ml), and then left untreated or stimulated with a sub-optimal concentration of HRF or TNF-α. Representative results for stimulation with HRF are depicted in FIG. 3. The chosen HRF concentration has only minimal HIV-1 reactivating effect by itself (15% reactivation over background). Twenty four hours after activator addition, levels of HIV-1 reactivation were determined as the percentage of GFP-positive cells using flow cytometric analysis, which allowed for the simultaneous determination of cell viability. […] Optimal pretreatment time was 18 hours. Maximum reactivation effects were seen 48 hours after stimulation.

[3] = target: T1, positive transcription elongation factor (P-TEFb), a complex of CDK9 and Cyclin T1 (UniProt P50750 1-372; O60563 1-726); experiment: glycerol gradient (10-45%) sedimentation of J89GFP cell lysates, Western blot of the fractions with anti-CDK9 and anti-HEXIM-1
T1 construct: also called CDK9/CycT1
T1 sequence (P50750 whole entry, chain 1 of 2): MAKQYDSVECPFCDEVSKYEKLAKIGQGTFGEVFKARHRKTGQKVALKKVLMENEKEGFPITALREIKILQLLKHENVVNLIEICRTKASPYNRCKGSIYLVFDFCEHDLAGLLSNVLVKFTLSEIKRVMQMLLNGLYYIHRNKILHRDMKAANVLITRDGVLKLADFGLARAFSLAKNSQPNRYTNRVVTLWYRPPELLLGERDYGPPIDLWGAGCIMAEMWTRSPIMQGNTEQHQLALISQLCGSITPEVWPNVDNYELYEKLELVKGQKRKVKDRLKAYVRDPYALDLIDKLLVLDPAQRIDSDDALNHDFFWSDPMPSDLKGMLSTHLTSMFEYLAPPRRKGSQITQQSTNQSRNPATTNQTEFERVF
T1 sequence (O60563 whole entry, chain 2 of 2): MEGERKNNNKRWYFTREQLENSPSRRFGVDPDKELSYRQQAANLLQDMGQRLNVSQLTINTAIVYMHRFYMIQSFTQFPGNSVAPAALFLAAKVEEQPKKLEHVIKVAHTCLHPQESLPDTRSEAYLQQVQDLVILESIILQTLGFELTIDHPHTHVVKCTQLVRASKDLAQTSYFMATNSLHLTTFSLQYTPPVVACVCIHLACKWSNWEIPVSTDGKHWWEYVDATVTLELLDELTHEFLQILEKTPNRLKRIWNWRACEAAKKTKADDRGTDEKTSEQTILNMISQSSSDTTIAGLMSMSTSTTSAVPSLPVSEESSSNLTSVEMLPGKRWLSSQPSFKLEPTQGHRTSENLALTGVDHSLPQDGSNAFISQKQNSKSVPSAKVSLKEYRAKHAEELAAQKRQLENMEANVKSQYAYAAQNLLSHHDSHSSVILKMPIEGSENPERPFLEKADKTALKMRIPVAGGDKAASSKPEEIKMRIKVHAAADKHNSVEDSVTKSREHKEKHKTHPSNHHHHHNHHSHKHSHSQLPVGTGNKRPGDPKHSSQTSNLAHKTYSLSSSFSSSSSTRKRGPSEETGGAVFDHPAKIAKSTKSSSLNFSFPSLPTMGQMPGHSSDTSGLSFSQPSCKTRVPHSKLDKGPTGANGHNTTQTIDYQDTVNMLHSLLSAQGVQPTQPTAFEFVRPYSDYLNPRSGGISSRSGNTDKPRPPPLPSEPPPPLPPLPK
Description: Each gradient fraction was separated on a 10% SDS-PAGE gel and transferred by Western blot. […] Band densities were determined using ImageJ and are presented as relative band density. […] Band densities were determined using ImageJ and are presented as relative band density.
Fractions were resolved on 10% SDS-PAGE and transferred to polyvinylidene fluoride membrane.
Each gradient fraction was separated on a SDS-PAGE gel and subjected to Western blotting.

Molecule | reactivation of latent HIV-1 infection [1] | priming effect on HIV-1 reactivation by sub-optimal dose of HRF [2] | binding result [3]
CC[C@@]1(O)C[C@H](O[C@H]2C[C@H](N(C)C)[C@H](O[C@H]3C[C@H](O)[C@H](O[C@H]4CCC(=O)[C@H](C)O4)[C@H](C)O3)[C@H](C)O2)c2c(cc3c(c2O)C(=O)c2c(O)cccc2C3=O)[C@H]1C(=O)OC [aclacinomycin] | capable of reactivating latent HIV-1 infections | strong priming effect | 
HEXIM-1 (other, UniProt O94992 1-359, looked up) MAEPFLSEYQHQPQTSNCTGAAAVQEELNPERPPGAEERVPEEDSRWQSRAFPQLGGRPGPEGEGSLESQPPPLQTQACPESSCLREGEKGQNGDDSSAGGDFPPPAEVEPTPEAELLAQPCHDSEASKLGAPAAGGEEEWGQQQRQLGKKKHRRRPSKKKRHWKPYYKLTWEEKKKFDEKQSLRASRIRAEMFAKGQPVAPYNTTQFLMDDHDQEEPDLKTGLYSKRAAAKSDDTSDDDFMEEGGEEDGGSDGMGGDGSEFLQRDFSETYERYHTESLQNMSKQELIKEYLELEKCLSRMEDENNRLRLESKRLGGDDARVRELELELDRLRAENLQLLTENELHRQQERAPLSKFGD |  |  | binds

— US20140295012A1, “LATENT HUMAN IMMUNODEFICIENCY VIRUS REACTIVATION” (priority 2011, published 2014)
